In patent publication US20060287353A1, “Method for preventing or treating ischemia-or hemorrhage-induced brain damage using a macrolide compound” (Astellas Pharma Inc., priority 1999, published 2006):

How the values were obtained:
[1] = Immunosuppressive activity (statement, no method described); conditions: stated in text without test details
[2] = test system: rat endothelin-induced MCA occlusion model; test: Neuroprotective efficacy in the rat endothelin-induced MCA occlusion model (ET-1 model of stroke); format: in vivo; conditions: five minutes post-lesion, male Sprague Dawley rats, damage assessed three days post-lesion
Protocol: Neuroprotective efficacy of the compound (I) in the rat endothelin-induced MCA occlusion model
The compound (I) was dissolved in a polyoxyethylene-hydrogenated castor oil 60/ethanol (400mg/1 ml) solution and administered at 1 and 3 mg.kg^−1. All drugs and relevant control were administered in a volume of 2 ml. kg^−1. MCA occlusion by the endothelin method was performed on male Sprague Dawley rats (271- 324g) as described in U.S. Pat. No. 5,648,351. All drugs were infused through the i.v. catheter at 1 ml min^−1, five minutes post-lesion. The animals were sacrificed by cardiac infusion under barbiturate anaesthesia. Volume of lesion was calculated from measured areas of damage (as assessed three days post-lesion) using the Trapezoid Rule. Results are presented as volume (mm^3)±SEM. Statistical analysis was performed using ANOVA and post hoc Student-Newman-Keuls test, where p<0.05 was set as an acceptable level for significance.

COC1CC(/C=C(\C)C2OC(=O)C3CCCCN3C(=O)C(=O)C3(O)OC(C(OC)CC(C)C/C(C)=C/C(CC(C)=O)C(=O)CC(O)C2C)C(OC)CC3C)CCC1O (stereo not drawn) [compound (I)]
immunosuppressive activity [1]: no immunosuppressive activity | protection of the cortex (lesion volume) against vehicle ([2]; 1 mg.kg^-1 i.v., n=14): 61% | protection of the cortex (lesion volume) against vehicle ([2]; 3 mg.kg^-1 i.v., n=9): 42%
